According to patent US20220008373A1 (priority 2020, published 2022):
“Also recorded” adds a separate entry of the source.

System: pseudovirus carrying the Spike protein of SARS-CoV-2
Assay type: cell-based

| SMILES | inhibition of pseudovirus infection (attachment and entry) |
| --- | --- |
| CC(C)C[C@H](N[C@@H](Cc1cncn1Cc1cc(Cl)cc(Cl)c1)C(=O)O)C(=O)O [MLN-4760] | No inhibition of viral infection; also recorded: no ability to block the entrance to the pseudovirus |
| CN1CCN(c2ccc(CNC(=O)c3ccno3)cc2)CC1 [SSAA09E2] | dose-dependent inhibition of pseudovirus infection; also recorded: effective at blocking infection |
